Some results are limits rather than exact numbers.

For this assay, the target named is Full length human recombinant HDAC11 (Homo sapiens (Human), UniProt Q96DB2). Briefly: Enzymatic HDAC11 assay, electrophoretic mobility shift. The format is biochemical. The settings on record: substrate FAM-RHKK(tri-fluor-Ac)-NH2, read-out: HDAC11 IC50 Range. As to the method: The enzymatic HDAC11 assay was performed using electrophoretic mobility shift assay. Full length human recombinant HDAC11 protein was expressed in baculoviral system and purified by affinity chromatography. The enzymatic reactions were assembled in 384 well plates in a total volume of 25 μL in a reaction buffer composing: 100 mM HEPES, pH 7.5, 25 mM KCl, 0.1% bovine serum albumin, 0.01% Triton X-100, 1% DMSO (from compounds) 2 μM of the fluorescently labeled peptide substrate and enzyme. The enzyme was added at a final concentration of 10 nM. The peptide substrate FAM-RHKK(tri-fluor-Ac)-NH2 was used. The compounds were tested at 12 concentrations spaced by 3× dilution intervals. Negative control samples (0%-inhibition in the absence of inhibitor) and positive control samples (100%-inhibition) were assembled in replicates of four in each assay plate. The reactions were incubated at 25° C. and quenched by the addition of 45 μL of termination buffer (100 mM HEPES, pH 7.5, 0.01% Triton X-100, 0.05% SDS).
Full length human recombinant HDAC11, sequence (Q96DB2 whole entry): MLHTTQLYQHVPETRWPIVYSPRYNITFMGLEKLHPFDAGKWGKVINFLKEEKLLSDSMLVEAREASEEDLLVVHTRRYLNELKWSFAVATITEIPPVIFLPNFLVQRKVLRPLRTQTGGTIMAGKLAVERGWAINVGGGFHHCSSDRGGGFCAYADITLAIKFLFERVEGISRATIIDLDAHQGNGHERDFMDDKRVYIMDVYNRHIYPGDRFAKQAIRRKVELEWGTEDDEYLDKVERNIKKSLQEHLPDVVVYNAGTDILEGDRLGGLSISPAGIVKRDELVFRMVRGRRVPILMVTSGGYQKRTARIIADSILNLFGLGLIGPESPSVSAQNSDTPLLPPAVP
The terminated assay plates were analyzed on LabChip® 3000 microfluidic electrophoresis instrument (Perkin Elmer/Caliper Life Sciences). The fluorescence intensity of the electrophoretically separated de-acetylated product and substrate peptide was measured. Activity in each sample was determined as the product to sum ratio (PSR):P/(S+P), where P is the peak height of the product peptide and S is the peak height of the substrate peptide. Percent inhibition (Pinh) is determined using the following equation: Pinh=(PSR0%−PSRinh)/(PSR0%−PSR100%)*100,
where PSRinh is the product sum ratio in the presence of inhibitor, PSR0% is the average product sum ration in the absence of inhibitor and PSR100% is the average product sum ratio in 100%-inhibition control samples. The IC50 values of inhibitors were determined by fitting the percent inhibition curves with 4 parameter dose-response model using XLfit 4 software.
(A gel shift assay detects complexes by their altered migration in electrophoresis.)
For orientation: IC50 means the concentration at which inhibition is half-maximal. `O=C(NO)c1cccc2c1CC1(CCN(CCCc3ccccc3)C1=O)C2` (stereo not drawn) [II-15, N-hydroxy-2′-oxo-1′-(3-phenylpropyl)-1,3-dihydrospiro[indene-2,3′-pyrrolidine]-4-carboxamide]: the IC50 was over 1000 nM.
In the case of `O=C(NO)c1cccc2c1CC1(CCN(CC3CC3)C1=O)C2` (stereo not drawn) [II-55, 1′-(cyclopropylmethyl)-N-hydroxy-2′-oxo-1,3-dihydrospiro[indene-2,3′-pyrrolidine]-4-carboxamide], the IC50 was over 1000 nM.
With `O=C(NO)c1cccc2c1CC1(CC2)CCN(Cc2ccc(Cl)cc2)C1=O` (stereo not drawn) [II-69, 1′-(4-chlorobenzyl)-N-hydroxy-2′-oxo-3,4-dihydro-1H-spiro[naphthalene-2,3′-pyrrolidine]-8-carboxamide], the IC50 was over 1000 nM.
In the case of `CN(C)C(=O)N1CCC2(CCc3cccc(C(=O)NO)c3O2)CC1` [II-74, N8-hydroxy-N1′,N1′-dimethylspiro[chromane-2,4′-piperidine]-1′,8-dicarboxamide], the concentration for half-maximal inhibition (IC50) was over 1000 nM.
Regarding `O=C(NO)c1cccc2c1CC1(CCN(C3CC3)CC1)C2` [II-63, 1′-cyclopropyl-N-hydroxy-1,3-dihydrospiro[indene-2,4′-piperidine]-4-carboxamide], the half-inhibitory concentration (IC50) was over 1000 nM.
For `O=C(NO)c1cccc2c1CC1(CCN(Cc3ccc(C(F)(F)F)cc3)C1)C2` (stereo not drawn) [II-56, N-hydroxy-1′-(4-(trifluoromethyl)benzyl)-1,3-dihydrospiro[indene-2,3′-pyrrolidine]-4-carboxamide], the IC50 lay in the range of 500 to 1000 nM.
For `O=C(NO)c1cccc2c1CC1(CCN(Cc3ccc(OC(F)(F)F)cc3)C1=O)C2` (stereo not drawn) [II-27, N-hydroxy-2′-oxo-1′-(4-(trifluoromethoxy)benzyl)-1,3-dihydrospiro[indene-2,3′-pyrrolidine]-4-carboxamide], the IC50 is under 500 nM.
The value for `O=C(NO)c1cccc2c1CC1(CCN(Cc3cc(Cl)ccc3Cl)C1=O)C2` (stereo not drawn) [II-45, 1′-(2,5-dichlorobenzyl)-N-hydroxy-2′-oxo-1,3-dihydrospiro[indene-2,3′-pyrrolidine]-4-carboxamide] was 500 to 1000 nM; that for `O=C(NO)c1cccc2c1CCC1(CCN(Cc3ccc(Cl)c(C(F)(F)F)c3)C1=O)C2` (stereo not drawn) [II-84, 1′-(4-chloro-3-(trifluoromethyl)benzyl)-N-hydroxy-2′-oxo-3,4-dihydro-1H-spiro[naphthalene-2,3′-pyrrolidine]-5-carboxamide] was under 500 nM.
As to `O=C(NO)c1cccc2c1CC1(CCN(Cc3noc(C4CCOCC4)n3)C1=O)C2` (stereo not drawn) [II-49, N-hydroxy-2′-oxo-1′-((5-(tetrahydro-2H-pyran-4-yl)-1,2,4-oxadiazol-3-yl)methyl)-1,3-dihydrospiro[indene-2,3′-pyrrolidine]-4-carboxamide], the half-maximal inhibitory concentration (IC50) is over 1000 nM.
The result for `COc1cc(CN2CCC3(Cc4cccc(C(=O)NO)c4C3)C2=O)cc(OC)c1` (stereo not drawn) [II-40, 1′-(3,5-dimethoxybenzyl)-N-hydroxy-2′-oxo-1,3-dihydrospiro[indene-2,3′-pyrrolidine]-4-carboxamide] reads over 1000 nM; that for `O=C(NO)c1cccc2c1CC1(CCN(c3ccccc3C(F)(F)F)C1=O)C2` (stereo not drawn) [II-13, N-hydroxy-2′-oxo-1′-(2-(trifluoromethyl)phenyl)-1,3-dihydrospiro[indene-2,3′-pyrrolidine]-4-carboxamide], over 1000 nM; that for `O=C(NO)c1cccc2c1CC1(CC2)CCN(c2ccc(C(F)(F)F)cc2)C1=O` (stereo not drawn) [II-71, N-hydroxy-2′-oxo-1′-(4-(trifluoromethyl)phenyl)-3,4-dihydro-1H-spiro[naphthalene-2,3′-pyrrolidine]-8-carboxamide], 500 to 1000 nM.
Take `O=C(NO)c1cccc2c1CC1(CC2)CCN(Cc2ccc(Cl)c(C(F)(F)F)c2)C1=O` (stereo not drawn) [II-67, 1′-(4-chloro-3-(trifluoromethyl)benzyl)-N-hydroxy-2′-oxo-3,4-dihydro-1H-spiro[naphthalene-2,3′-pyrrolidine]-8-carboxamide]: the IC50 is under 500 nM.
The value for `O=C(NO)c1cccc2c1CCC1(CCN(c3ccccc3)CC1)O2` [II-92, N-hydroxy-1′-phenylspiro[chromane-2,4′-piperidine]-5-carboxamide] was over 1000 nM; that for `O=C(NO)c1cccc2c1CC1(CCN(Cc3ccc(F)cc3)C1=O)C2` (stereo not drawn) [II-7, 1′-(4-fluorobenzyl)-N-hydroxy-2′-oxo-1,3-dihydrospiro[indene-2,3′-pyrrolidine]-4-carboxamide] was 500 to 1000 nM.
Take `O=C(NO)c1cccc2c1C[C@@]1(CCN(Cc3ccc(Cl)c(C(F)(F)F)c3)C1=O)C2` [II-3, (R)-1′-(4-chloro-3-(trifluoromethyl)benzyl)-N-hydroxy-2′-oxo-1,3-dihydrospiro[indene-2,3′-pyrrolidine]-4-carboxamide]: the 50% inhibitory concentration (IC50) is under 500 nM.
The value for `O=C(NO)c1cccc2c1CC1(CCN(Cc3c(Cl)cccc3Cl)C1=O)C2` (stereo not drawn) [II-21, 1′-(2,6-dichlorobenzyl)-N-hydroxy-2′-oxo-1,3-dihydrospiro[indene-2,3′-pyrrolidine]-4-carboxamide] was 500 to 1000 nM; that for `O=C(NO)c1cccc2c1CC1(CCN(Cc3cccc(F)c3)C1=O)C2` (stereo not drawn) [II-26, 1′-(3-fluorobenzyl)-N-hydroxy-2′-oxo-1,3-dihydrospiro[indene-2,3′-pyrrolidine]-4-carboxamide] was over 1000 nM.
On to `O=C(NO)c1cccc2c1CC1(CC2)CCN(Cc2ccc(C(F)(F)F)c(F)c2)C1=O` (stereo not drawn) [II-68, 1′-(3-fluoro-4-(trifluoromethyl)benzyl)-N-hydroxy-2′-oxo-3,4-dihydro-1H-spiro[naphthalene-2,3′-pyrrolidine]-8-carboxamide], for which the IC50 was under 500 nM.
As for `O=C(NO)c1cccc2c1CC1(CCN(Cc3cccc(C(F)(F)F)c3)C1=O)C2` (stereo not drawn) [II-31, N-hydroxy-2′-oxo-1′-(3-(trifluoromethyl)benzyl)-1,3-dihydrospiro[indene-2,3′-pyrrolidine]-4-carboxamide], the IC50 was under 500 nM.
`O=C(NO)c1cccc2c1OC1(CC2)CCN(Cc2ccc(F)cc2)CC1` [II-80, 1′-(4-fluorobenzyl)-N-hydroxyspiro[chromane-2,4′-piperidine]-8-carboxamide]: the IC50 is over 1000 nM.
For the compound `CS(=O)(=O)c1ccc(CN2CCC3(Cc4cccc(C(=O)NO)c4C3)C2=O)cc1` (stereo not drawn) [II-8, N-hydroxy-1′-(4-(methylsulfonyl)benzyl)-2′-oxo-1,3-dihydrospiro[indene-2,3′-pyrrolidine]-4-carboxamide], the IC50 is over 1000 nM.
Consider `O=C(NO)c1cccc2c1CC1(CCN(CC3CCC3)C1=O)C2` (stereo not drawn) [II-10, 1′-(cyclobutylmethyl)-N-hydroxy-2′-oxo-1,3-dihydrospiro[indene-2,3′-pyrrolidine]-4-carboxamide], for which the half-inhibitory concentration (IC50) was over 1000 nM.
With `O=C(NO)c1cccc2c1CC1(CCN(c3cccc(C(F)(F)F)c3)C1=O)C2` (stereo not drawn) [II-12, N-hydroxy-2′-oxo-1′-(3-(trifluoromethyl)phenyl)-1,3-dihydrospiro[indene-2,3′-pyrrolidine]-4-carboxamide], the IC50 fell in the range of 500 to 1000 nM.
As to `O=C(NO)c1cccc2c1CCC1(CCN(c3ccccc3C(F)(F)F)C1=O)C2` (stereo not drawn) [II-90, N-hydroxy-2′-oxo-1′-(2-(trifluoromethyl)phenyl)-3,4-dihydro-1H-spiro[naphthalene-2,3′-pyrrolidine]-5-carboxamide], the IC50 was over 1000 nM.
Regarding `O=C(NO)c1cccc2c1CC1(CCN(C(=O)c3ccc(Cl)cc3)CC1)C2` [II-61, 1′-(4-chlorobenzoyl)-N-hydroxy-1,3-dihydrospiro[indene-2,4′-piperidine]-4-carboxamide], the IC50 was over 1000 nM.

The record behind these values is US10508088B2, “Methods using HDAC11 inhibitors” (FORMA Therapeutics, Inc., priority 2016, dated 2019).
